# In patent US20180142211A1, “METHODS OF MESENCHYMAL STEM CELL MOBILIZATION AND EXPANSION” (Biokine Therapeutics Ltd, priority 2015, published 2018):
# pKd: −log10 of the molar value. “Also recorded” adds a separate entry of the source.
# Assays:
# CXCR4 [1] = biological target: T1, CXCR4 (Homo sapiens, UniProt P61073); experiment: Phase I study: receptor occupancy and pharmacodynamic effect; type: in vivo; parameters: endogenous in cells; host or cells: peripheral blood cells (CD34+, lymphocyte, mononuclear populations) of healthy volunteers; conditions: post dosing
# Description: (§1) Mean CD34+ count at baseline was 5.81/μL.
# Target sequence in this assay (P61073 whole entry): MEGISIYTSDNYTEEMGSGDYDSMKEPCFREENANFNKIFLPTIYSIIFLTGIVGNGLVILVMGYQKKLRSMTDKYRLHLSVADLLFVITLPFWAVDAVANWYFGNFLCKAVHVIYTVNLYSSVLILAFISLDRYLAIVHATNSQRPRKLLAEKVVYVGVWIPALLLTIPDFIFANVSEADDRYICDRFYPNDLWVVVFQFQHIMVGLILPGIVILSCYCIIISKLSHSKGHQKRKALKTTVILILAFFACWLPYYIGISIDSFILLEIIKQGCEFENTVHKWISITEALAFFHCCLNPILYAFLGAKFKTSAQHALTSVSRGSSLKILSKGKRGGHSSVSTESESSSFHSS
# [2] = human, in vivo
# Procedure: To test the effect of BL-8040 (SEQ ID NO: 1) on mesenchymal stem cell mobilization a two-part study was performed. The first part of the study was randomized, double-blind, placebo-controlled dose escalation study. In each cohort, six volunteers were administrated twice (altogether) on day one and two with BL-8040 (First cohort 0.5 mg/kg, Second cohort 0.75 mg/kg and Third 1.0 mg/kg) and 2 were administrated with placebo. […] BL-8040's safety, tolerability and pharmacokinetic profile were also evaluated on this part.
# HSC (CD34+ cells) = experiment: Phase I study: mobilization of HSC (CD34+ cells); type: in vivo, human
# Description: as §1
# HPC colony forming cells = experiment: Phase I study: HPC colony forming cell mobilization; type: in vivo, human; conditions: 4-8 hr post injection
# Description: as §1
# white blood cells (WBC) = experiment: Phase I study: WBC mobilization to peripheral blood; type: in vivo, human; conditions: 4 hours post dose, baseline 6.31
# Description: as §1
# [3] = system: T cells, B cells and NK cells; experiment: Phase I study: FACS analysis of lymphocyte mobilization; type: in vivo, human
# Description: as §1
# [4] = system: Mesenchymal Stem Cells (MSCs); experiment: Phase I study: MSC mobilization, MesenCult assay; type: in vivo, human; conditions: for MSC mobilization into peripheral blood, single agent: MesenCult
# Procedure: To evaluate the number of MSCs in the blood, a MesenCult assay was used at different time points following BL-8040 administration (0.75 mg/Kg FIGS. 1-2, or 1 mg/Kg FIGS. 3-4)) to healthy subjects-as described above.
# White blood cells (WBCs) obtained from 100 μl blood, were plated in MesenCult medium (2 ml).
# The number of MSCs colonies and MS cells were visually scored 15 days later, using a light microscope, and the frequency of MSC colonies and MSCs was calculated.
# [5] = system: long term repopulating cells; conditions: mice, single injection; cited from earlier work
# CXCR4 [6] = biological target: T1, CXCR4; conditions: cited from earlier work
# Target sequence in this assay (P61073 whole entry, species assumed): as the sequence (P61073 whole entry) above
# CD34 (+) cells = conditions: MM patients, combined with G-CSF, single administration; cited from earlier work
# MSCs = conditions: without cytokines such as PDGF, VEGF, IGF-1 or SCF; cited from earlier work
molecule,measurement,setting,value
4F-benzoyl-Arg-Arg-Nal-Cys-Tyr-Cit-Lys-DLys-Pro-Tyr-Arg-Cit-Cys-Arg-NH2 [BL-8040],duration of receptor occupancy and pharmacodynamics effect,CXCR4 [1],≥ 24 h
same,appearance in plasma,[2],rapid
same,half-life,[2],short
same,mean CD34 count,"HSC (CD34+ cells); 0.5 mg/kg, 4 hour post the second dose, placebo 9",38 µL⁻¹
same,mean CD34 count,"HSC (CD34+ cells); 0.5 mg/kg, four hours post dose, baseline 5.81/μL, placebo 8",37 µL⁻¹
same,mean CD34 count,"HSC (CD34+ cells); 0.75 mg/kg, 4 hour post the second dose, placebo 9",46 µL⁻¹
same,mean CD34 count,"HSC (CD34+ cells); 0.75 mg/kg, four hours post dose, baseline 5.81/μL, placebo 8",31 µL⁻¹
same,mean CD34 count,"HSC (CD34+ cells); 1 mg/kg, 4 hour post the second dose, placebo 9",58 µL⁻¹
same,CD34+ count in all subjects,"HSC (CD34+ cells); 1 mg/kg, 4 hours post single administration, all subjects",more than 20 CD34+/μL
same,mean CD34 count,"HSC (CD34+ cells); 1 mg/kg, four hours post dose, baseline 5.81/μL, placebo 8",35 µL⁻¹
same,mobilization of HSC (CD34+ cells),HSC (CD34+ cells); across all doses tested,Dramatic mobilization
same,mobilization of HPC colony forming cells,HPC colony forming cells,rapid mobilization
same,mean WBC count,white blood cells (WBC),2.968e+10 L⁻¹
same,"mobilization of T cells, B cells and NK cells",[3],substantial mobilization
same,mobilization of Mesenchymal Stem Cells (MSCs),[4]; 4-8 hr post injection,rapid mobilization of MSCs
same,"MSC mobilization into peripheral blood, single agent","[4]; Cohort 2 (0.75 mg/Kg), 15 days culture (FIGS. 1-2), 0.75 mg/kg",mobilizes mesenchymal stem cells (MSCs) into peripheral blood (PB); also recorded: mobilizes MSCs into the PB
same,"MSC mobilization into peripheral blood, single agent","[4]; Cohort 3 (1 mg/Kg), 15 days culture (FIGS. 3-4), 1 mg/kg",mobilizes mesenchymal stem cells (MSCs) into peripheral blood (PB); also recorded: mobilizes MSCs into the PB
same,mobilization of long term repopulating cells for transplantation,[5],sufficient to mobilize enough long term repopulating cells for transplantation
same,off-rate of the receptor,CXCR4 [6],slow off-rate
same,pKd,"CXCR4 [6]; high affinity, read-out: affinity of binding to CXCR4",8.70 to 9.00
same,stem cell mobilization (CD34 (+) cell collection in one aphaeresis procedure),CD34 (+) cells,efficient stem cell mobilizer
c1cc(CN2CCCNCCNCCCNCC2)ccc1CN1CCCNCCNCCCNCC1 [AMD3100],MSC mobilization by the agent alone,MSCs,not sufficient to mobilize MSCs
